System: saffron crocus (Crocus sativus L.) corm explants
Experiment: in-vitro induction of flowering / proliferation of floral primordia in corm explants on MS medium with PGR
Type: cell-based
Protocol: Accordingly, the incubation is carried out at a temperature in the range of 9° C. to 30° C. preferably at a temperature in the range of 9° C. to 21° C., with RH (relative humidity) in the range of 50 to 90%, and photoperiod of about 16 hours provided by 1/2/4 cool fluorescent tubes (Philips, 40 W), giving about 11.7 ? mol m−^2 s^−1 PPF (Photosynthetic Photon Flux) i.e. ˜866 lux (illuminance) each followed by 8-h dark period. The cultures are maintained for 4-5 weeks in the medium at above incubation conditions during which 80% of the culture remain sterile and show sprouting. They are then transferred to fresh MS medium of same composition and incubated under sterile conditions for about 1 to 2 weeks till the sprouted buds are about 8 cm long. The sprouted buds are slit vertically and incubated in MS medium of same composition for another 2 to 3 weeks under the same conditions. This helps the bud to open and grow further (FIG. 1 & FIG. 2).
(§1) Corms weighing ˜10 gm were used for the experiments. Explants were prepared by trimming the sides and base of the corms and making small cubes of about 1 cm^3 containing the dormant or slightly sprouted apical buds on 22 Oct. 2014.
These explants were surface sterilized by washing them with neutral Detergent Labolene for 10 min followed by washing with 15% Savlon for 10 minutes. Further, these explants were treated with 1% Bavistin (BASF) for 30 minutes followed by 5 min followed by 0.08% mercuric chloride treatment in a sterile work station (Laminar Air Flow cabinet). After each treatment the explants were washed with sterile distilled water.
Murashige and Skoog Medium supplemented with 6 benzyl amino purine (BAP) (1.0 mg/l) was used for culture. The media made in distilled water was further constituted with 3% sucrose and 0.6% agar. The final pH was adjusted at 5.7. The media was autoclaved at 121° C. at 15 lbs pressure for 20 minutes.
The cultures were maintained for 5 weeks in the medium at 25±2° C., light intensity 16-h light (at 11.7 ? mol m^−2s^−1) followed by 8-h dark period.
The sterile sprouted buds of 5-7 cms length were transferred to fresh medium of same composition after making a vertical slit on the sprouting bud. It helps the bud to open and grow further.
They were again incubated for 3 weeks under the same incubation conditions.
as §1, with “2014. One part of such samples was used for this set-up, while other was reserved for set ^-up of Example 3.” for “2014.”
The explants were surface sterilized by passing it through Detergent Labolene for 10 min followed by washing with 15% Savlon for 10 minutes. Further, the cubed explants were treated with 1% Bavistin (BASF) for 30 minutes followed by 5 min 0.08% mercuric chloride treatment in a sterile work station (Laminar Air Flow cabinet). After each treatment the explants were washed with sterile distilled water.
The cultures were maintained for 5 weeks in the medium at 25±2° C. Light intensity 16-h light (at 11.7 ? mol m^−2 s^−1) followed by 8-h dark period.
The sterile sprouted buds of 5-7 cm length were transferred to fresh medium of same composition after making a vertical slit on the sprouting bud.
The explants were surface sterilized by treating them with neutral detergent Labolene for 15 min followed by washing with 20% Savlon for 5 minutes. […]

| Compound | flowering in cultures (Example 1, MS medium with 1.0 mg/l, explants prepared 22 Oct. 2014, observed by Nov. 5, 2014 (natural flowering season)) | flowering in cultures maintained on fresh medium (Example 2, MS medium with 1.0 mg/l, until May 2015) | initiation of flowering in culture (Example 2, MS medium with 1.0 mg/l, until late December 2014 (beyond natural flowering period)) | flowering in cultures (Example 3, MS medium with 0.01, 0.05 and 0.1 mg/l, by last week of December 2014) | flowering in cultures maintained on fresh medium (Example 3, MS medium with 0.01, 0.05 and 0.1 mg/l, till May 2015) |
| --- | --- | --- | --- | --- | --- |
| c1ccc(CNc2ncnc3nc[nH]c23)cc1 [BAP, 6-benzylaminopurine] | Flowering was observed | flowering was observed | Initiation of flowering was observed |  |  |
| O=C(Nc1ccccc1)Nc1cnns1 [TDZ, thidiazuron] |  |  |  | Flowering was observed | flowering was observed |

Reference: patent US10827695B2, “Process for in vitro flowering in Crocus sativus L” (Council of Scientific & Industrial Research, priority 2015, dated 2020)
